What all share (assay type): physicochemical
Series [1] in a line: Stability of Compound 5 in DMSO solution (non-reductive environment), HPLC-MS. To be noted: room temperature, 24 hours, no reducing agent. As to the method: (§1) A DMSO solution of Compound 5 was incubated at room temperature for 24 hours. […] The Compound was then incubated at room temperature with one equivalent of the reducing agent tris (2-carboxyethyl) phosphine (TCEP). […] Intact Compound 5; (ii). a product corresponding to Compound 5 with two reduced thiol groups (Product 1); (iii). a product corresponding to cleaved Fragment A; and (iv). a product corresponding to cleaved Fragment B.
(§2) However, in reductive conditions, conversion of the disulfide into free thiol groups takes place. Importantly, this step is evidently followed by an intramolecular reaction, with molecular cleavage at the carbamate moiety, conceivably related to nucleophilic attack on the respective carbonyl by a thiol or a thiolate group, conveniently located at the sixth atom position. Therefore, the Compound manifests selective reduction-dependent cleavage. The site of the nucleophilic attack is described in the following Scheme 4: […]

Series [2] is described as follows: Reduction-induced cleavage with one equivalent of TCEP, HPLC-MS. To be noted: room temperature, 18 hours. As to the method:
as §1, §2

Series [3] is described as follows: Reduction-induced cleavage with excess dithiothreitol (15 equiv), HPLC/MS. To be noted: 15 equiv DTT, DMSO/phosphate buffer pH 7, 37° C., argon. As to the method: Dithiothreitol (DTT) is a reducing agent; once oxidized, it forms a stable six-membered ring, with an internal disulfide bond. Disulfide compound A was treated with excess dithiothreitol (15 equiv, aq. 0.5M, pH adjusted to 7 with phosphate buffer solution) in DMSO and phosphate buffer solution (pH 7) at 37° C. under an argon atmosphere. Two sets of samples were analyzed by HPLC/MS: at 6 and at 24 hours.
As expected, the peak at 24 hours was of larger amplitude (70% vs. 30%).

A short description of series [4]: Reduction-induced cleavage with 100 equivalents of DTT, HPLC/MS. Particulars: 100 equiv DTT, DMSO/aqueous buffer pH 7.0, 37° C., argon. As to the method: The experiment comprised incubation of Compound B with 100 equivalents of the reducing agent DTT (0.1 mL of 2 M solution), 1.0 mL DMSO in aqueous buffer (pH=7.0), at 37° C. under argon atmosphere. Three sets of samples were analyzed by HPLC/MS: at 1 hour, 6 hours, and at 24 hours. […] This structure was thereafter maintained throughout the experiment.
Importantly however, HPLC/MS also indicated the formation of Compound B3, indicating cleavage of Compound B2, at the carbamate bond, with release of the phenolic moiety, Compound B3:
There was evidence for such cleavage, with release of Compound B3, already at one hour of incubation, where 30% cleavage was detected. This increased to 90% of cleaved product at 6 hours, and full cleavage by 24 hours.

As for `C[C@]12CC[C@@H]3c4ccc(OC(=O)N(CCCCCCO)C5CCSSC5)cc4CC[C@H]3[C@@H]1CC[C@@H]2OCCCOC(C(F)(F)F)(C(F)(F)F)C(F)(F)F` (stereo partly drawn) [Compound 5], the “stability of the DMSO solution by HPLC-MS” value in series [1] was “stable and intact”. For the same compound, in series [2], the “HPLC-MS products after incubation with reducing agent (intact compound, reduced Product 1, cleaved Fragment A, cleaved Fragment B)” value is on record as “four distinct peaks”.
`CCCCCCN(C(=O)Oc1ccccc1)[C@H]1CCSSC1` [Compound A]: in series [3] (6 hours), the “cleavage (peak amplitude of cleavage product A3)” value was 30% and the “reduction of the disulphide bond (A2)” value was “clearly visible”. Moreover, the “cleavage (peak amplitude of cleavage product A3)” value in series [3] (24 hours) is reported as 70%.
On to `C[C@]12CC[C@@H]3c4cc(F)c(OC(=O)N(CCCO)C5CCSSC5)cc4CC[C@H]3[C@@H]1CC[C@@H]2OCCCOC(C(F)(F)F)(C(F)(F)F)C(F)(F)F` (stereo partly drawn) [Compound B], for which the results for the “cleavage with release of Compound B3” value in series [4] (6 hours), in series [4] (24 hours) and in series [4] (one hour) were 90%, “full cleavage” and 30%, respectively. Also, the “reduction of the disulphide bond (conversion of Compound B to Compound B2)” value in series [4] (one hour) is “full conversion”.

Source of the values: patent US11286246B2, “Pro-drugs and related methods” (Aposense LTD., priority 2015, dated 2022).
